Tests used:
[1] = target: T1, XIAP-BIR3 (Homo sapiens, UniProt P98170); test: Biacore SPR solution inhibition (competition with smac7mer peptide) binding assay, XIAP-BIR3; settings: 100 nM XIAP-BIR3, competition with immobilised smac7mer peptide, 25° C.; read-out: XIAP-BIR3 Binding Biacore (Competitive) EC50
T1 construct: with either 100 nM XIAP-BIR3 or 6 nM cIAP1-BIR3
From the text: (§1) The present method includes utility of a Surface plasmon resonance (SPR)-based biosensor (Biacore™ GE Healthcare, Uppsala, Sweden) to examine competition between the compounds of the present invention and smac7mer peptide for XIAP-BIR3 and cIAP1-BIR3 binding groove occupancy.
(§2) Biacore™ utilizes the phenomenon of surface plasmon resonance (SPR) to detect and measure binding interactions. In a typical Biacore experiment, one of the interacting molecules is immobilized on a flexible dextran matrix while the interacting partner is flowed over the derivatized surface. A binding interaction results in an increase in mass on the sensor surface and a corresponding direct change in the refractive index of the medium in the vicinity of the sensor surface. Changes in refractive index or signal are recorded in resonance units (R.U.) Signal changes due to association and dissociation of complexes are monitored in a non-invasive manner, continuously and in real-time, the results of which are reported in the form of a sensorgram.
(§3) Solution Inhibition Assay Format:
(§4) Biacore™ T100 (GE Healthcare, Uppsala, Sweden) was used to conduct all experiments reported herein. Sensor surface preparation and interaction analyses were performed at 25° C. Buffer and Biacore reagents were purchased from GE Healthcare. Running buffer containing 10 mM Hepes, pH7.4, 150 mM sodium chloride, 1.25 mM Dithiothreitol, 2% Dimethyl sulfoxide and 0.05% polysorbate 20 was utilized throughout all experiments.
(§5) Biotinylated smac7mer peptide was diluted to 10 nM in running buffer and captured onto a sensor surface pre-derivatized with streptavidin (sensor chip SA) towards peptide surface densities in the range 40-100 R.U. Peptide captured surfaces were blocked with 500 μM PEO2-Biotin (Thermo Scientific).
(§6) Interaction analyses were performed by first equilibrating each compound within a six point seven fold compound dilution series in the range 1 μM to 0.06 nM with either 100 nM XIAP-BIR3 or 6 nM cIAP1-BIR3 for at least one hour during instrument start-up procedures. Protein compound mixtures were then injected over reference and smac7mer peptide surfaces in series for 60 seconds at a flow-rate of 60 μL/min. Surface regeneration was performed at the end of each analysis cycle by a 30 second injection of 10 mM Glycine, pH 2.5, 1M Sodium Chloride, 0.05% polysorbate 20. Additionally, control compound samples and control XIAP-BIR3 or cIAP1-BIR3 samples were prepared and run at regular intervals to monitor surface and assay performance.
(§7) Data analyses were carried out using Biacore™ T100 evaluation software v2.0 to validate assay quality. Binding level report points were plotted versus logarithmic compound concentration values and analyzed in Graphpad prism 5 via non-linear regression using a one-site competition model. EC50 values were generated and used as a measure of inhibitor potency.

[2] = target: T2, cIAP1-BIR3 (Homo sapiens, UniProt Q13490); test: Biacore SPR solution inhibition (competition with smac7mer peptide) binding assay, cIAP1-BIR3; settings: 6 nM cIAP1-BIR3, competition with immobilised smac7mer peptide, 25° C.; read-out: CIAP-BIR3 Binding Biacore (Competitive) EC50
T2 construct: with either 100 nM XIAP-BIR3 or 6 nM cIAP1-BIR3
T2 sequence (Q13490 260-352 limits assumed): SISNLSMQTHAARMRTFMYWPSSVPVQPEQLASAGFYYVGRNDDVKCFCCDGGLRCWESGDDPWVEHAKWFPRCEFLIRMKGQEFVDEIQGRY
From the text: as §1, §2, §3, §4, §5, §6, §7

[3] = test system: Panc3.27 tumor cells; test: Cellular assay: Panc3.27 tumor cell proliferation (Cell Titer Glo); assay type: cell-based; settings: Panc3.27 cells, 72 hour treatment, read-out: PANC proliferation IC50
Experimental: Cellular Assay—Treatment of Panc3.27 Tumor Cells with Dimeric IAP Antagonists
On day one adherent Panc3.27 cells are plated into two 96-well, clear, flat bottom plates. All wells in row A contain 90 uL of media. All wells in rows B-G contain a total volume of 90 uL per well and 4000 cells per well for Panc3.27 cell lines. Plates are then incubated overnight for 18 hours at 37° C., 5% CO2.
On day two cells are treated with the compounds of formula M-L-M′. Treatments are done in triplicate. The compounds are first serially diluted in DMSO and then added to media giving a final concentration of 0.2% DMSO when added to cells. Cells are treated with 10 uL of serially diluted compounds of formula M-L-M′ at a final concentration of 1000 nM, 200 nM, 40 nM, 8 nM, 1.6 nM, 0.32 nM, 0.06 nM, 0.013 nM, 0.0026 nM, and one untreated well. Plate two is used as a time zero plate.
To measure cell viability 50 uL of Cell Titer Glo (CTG) solution is added to row A, media only and B, cells and media. CTG is purchased from Promega Corporation catalog number G7573. The solution is prepared according to manufacturer's instructions. CTG measures the amount of ATP released from viable cells that is proportional to the number of cells in each well. After incubating for ten minutes with CTG plates are measured on a luminescent reader at 700 nm wavelength. Read time is approximately one second per well for a 96-well plate.
On day five 50 uL of CTG is added to plate one, rows A-G, incubated for 10 minutes at room temperature and read on a luminescent reader. Raw data is adjusted to account for the time zero plate as well as background noise. Triplicate values are averaged and percent control growth is calculated. Percent control growth is calculated using the following logical test: If well read data point (a) is greater than time zero data point (t=0), then 100*[(a)−(t=0)]/[(72 hour total growth)−(t=0)], OR 100*[(a)−(t=0)]/[(t=0)]. Data is represented by line graph with the concentration of compound on the x axis and percent control growth on the y axis.

T1 sequence (P98170 241-356 limits assumed): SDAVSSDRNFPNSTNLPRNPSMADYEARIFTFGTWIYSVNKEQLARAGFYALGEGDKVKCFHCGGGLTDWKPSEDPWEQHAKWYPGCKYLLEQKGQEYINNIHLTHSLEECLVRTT

SMILES | EC50 [1] | EC50 [2] | IC50 [3]
CN[C@@H](C)C(=O)N[C@H](C(=O)N1CCC[C@H]1c1cncc(-n2ccc3c(C(=O)NCc4ccc(CNC(=O)c5cccc6c5ccn6-c5cncc([C@@H]6CCCN6C(=O)[C@@H](NC(=O)[C@H](C)NC)C(C)C)c5)cc4)cccc32)c1)C(C)C [Example 1B, (S,S,S)—N,N′-(1,4-phenylenebis(methylene))bis(1-(5-((S)-1-((S)-3-methyl-2-((S)-2-(methylamino)propanamido)butanoyl)pyrrolidin-2-yl)pyridin-3-yl)-1H-indole-4-carboxamide)] | 56.8 to 57 nM | 1.22 to 1.23 nM | < 0.0026 nM
CN[C@@H](C)C(=O)N[C@H](C(=O)N1CCC[C@H]1c1cncc(-n2ccc3c(C(=O)NCCCNC(=O)c4cccc5c4ccn5-c4cncc([C@@H]5CCCN5C(=O)[C@@H](NC(=O)[C@H](C)NC)C(C)C)c4)cccc32)c1)C(C)C [Example 1C, (S,S,S)—N,N′-(propane-1,3-diyl)bis(1-(5-((S)-1-((S)-3-methyl-2-((S)-2-(methylamino)propanamido)butanol)pyrrolidin-2-yl)pyridin-3-yl)-1H-indole-4-carboxamide)] | 70.7 to 71.3 nM | 1.66 to 1.71 nM | 0.0026 to 0.14 nM
CN[C@@H](C)C(=O)N[C@H](C(=O)N1CCC[C@H]1c1cncc(-n2ccc3c(C(=O)N[C@H]4CCCC[C@@H]4NC(=O)c4cccc5c4ccn5-c4cncc([C@@H]5CCCN5C(=O)[C@@H](NC(=O)[C@H](C)NC)C(C)C)c4)cccc32)c1)C(C)C [Example 1D, (S,S,S)—N,N′-((1S,2S)-cyclohexane-1,2-diyl)bis(1-(5-((S)-1-((S)-3-methyl-2-((S)-2-(methylamino)propanamido)butanoyl)pyrrolidin-2-yl)pyridin-3-yl)-1H-indole-4-carboxamide)] | 76 to 76.7 nM | 1.2 to 1.22 nM | 2.61 to 2.75 nM
CN[C@@H](C)C(=O)N[C@H](C(=O)N1CCC[C@H]1c1cncc(-n2cc(C(=O)NCCCOCCOCCOCCOCCOCCCNC(=O)c3cn(-c4cncc([C@@H]5CCCN5C(=O)[C@@H](NC(=O)[C@H](C)NC)C(C)C)c4)c4ccccc34)c3ccccc32)c1)C(C)C [Example 2B, (S,S,S)—N,N′-(4,7,10,13,16-pentaoxanonadecane-1,19-diyl)bis(1-(5-((S)-1-((S)-3-methyl-2-((S)-2-(methylamino)propanamido)butanoyl)pyrrolidin-2-yl)pyridin-3-yl)-1H-indole-3-carboxamide)] | 51.2 to 59.4 nM | 0.51 to 1.04 nM | 0.02 to 0.21 nM
CN[C@@H](C)C(=O)N[C@H](C(=O)N1CCC[C@H]1c1cncc(-n2cc(C(=O)NCCCOCCOCCOCCCNC(=O)c3cn(-c4cncc([C@@H]5CCCN5C(=O)[C@@H](NC(=O)[C@H](C)NC)C(C)C)c4)c4ccccc34)c3ccccc32)c1)C(C)C [Example 2C, (S,S,S)—N,N′-(3,3′-(2,2′-oxybis(ethane-2,1-diyl)bis(oxy))bis(propane-3,1-diyl))bis(1-(5-((S)-1-((S)-3-methyl-2-((S)-2-(methylamino)propanamido)-butanoyl)pyrrolidin-2-yl)pyridin-3-yl)-1H-indole-3-carboxamide)] | 42 to 79.9 nM | 0.97 to 0.98 nM | 0.1 to 0.27 nM
CN[C@@H](C)C(=O)N[C@H](C(=O)N1CCC[C@H]1c1cncc(-n2cc(C(=O)NCCCOCCOCCCNC(=O)c3cn(-c4cncc([C@@H]5CCCN5C(=O)[C@@H](NC(=O)[C@H](C)NC)C(C)C)c4)c4ccccc34)c3ccccc32)c1)C(C)C [Example 2E, (S,S,S)—N,N′-(3,3′-(ethane-1,2-diylbis(oxy))bis(propane-3,1-diyl))bis(1-(5-((S)-1-((S)-3-methyl-2-((S)-2-(methylamino)propanamido)butanoyl)pyrrolidin-2-yl)pyridin-3-yl)-1H-indole-3-carboxamide)] | 47 to 54 nM | 0.52 to 1.83 nM | 0.26 to 0.44 nM
CN[C@@H](C)C(=O)N[C@H](C(=O)N1CCC[C@H]1c1cncc(-n2cc(C(=O)NCCNC(=O)c3cn(-c4cncc([C@@H]5CCCN5C(=O)[C@@H](NC(=O)[C@H](C)NC)C(C)C)c4)c4ccccc34)c3ccccc32)c1)C(C)C [Example 2F, (S,S,S)—N,N′-(ethane-1,2-diyl)bis(1-(5-((S)-1-((S)-3-methyl-2-((S)-2-(methylamino)propanamido)butanoyl)pyrrolidin-2-yl)pyridin-3-yl)-1H-indole-3-carboxamide)] | 23.5 to 55.2 nM | 0.21 to 0.86 nM | 0.08 to 0.28 nM
CN[C@@H](C)C(=O)N[C@H](C(=O)N1CCC[C@H]1c1cncc(-n2cc(C(=O)NCc3ccc(-c4ccc(CNC(=O)c5cn(-c6cncc([C@@H]7CCCN7C(=O)[C@@H](NC(=O)[C@H](C)NC)C(C)C)c6)c6ccccc56)cc4)cc3)c3ccccc32)c1)C(C)C [Example 2G, (S,S,S)—N,N′-(biphenyl-4,4′-diylbis(methylene))bis(1-(5-((S)-1-((S)-3-methyl-2-((S)-2-(methylamino)propanamido)butanoyl)pyrrolidin-2-yl)pyridin-3-yl)-1H-indole-3-carboxamide)] | 47.9 to 51.6 nM | 2.24 to 2.27 nM | < 0.0026 nM
CN[C@@H](C)C(=O)N[C@H](C(=O)N1CCC[C@H]1c1cncc(-n2cc(C(=O)NCCCCCCCCCCCNC(=O)c3cn(-c4cncc([C@@H]5CCCN5C(=O)[C@@H](NC(=O)[C@H](C)NC)C(C)C)c4)c4ccccc34)c3ccccc32)c1)C(C)C [Example 2H, (S,S,S)—N,N′-(undecane-1,11-diyl)bis(1-(5-((S)-1-((S)-3-methyl-2-((S)-2-(methylamino)propanamido)butanoyl)pyrrolidin-2-yl)pyridin-3-yl)-1H-indole-3-carboxamide)] | 60.3 to 60.8 nM | 1 to 1.02 nM | < 0.0026 nM
CN[C@@H](C)C(=O)N[C@H](C(=O)N1CCC[C@H]1c1cncc(-n2cc(C(=O)NCCCOCCCNC(=O)c3cn(-c4cncc([C@@H]5CCCN5C(=O)[C@@H](NC(=O)[C@H](C)NC)C(C)C)c4)c4ccccc34)c3ccccc32)c1)C(C)C [Example 2I] | 19.7 to 20.8 nM | 0.5 to 0.51 nM | 0.18 to 1.21 nM
CN[C@@H](C)C(=O)N[C@H](C(=O)N1CCC[C@H]1c1cncc(-n2cc(C(=O)NCCCCNC(=O)c3cn(-c4cncc([C@@H]5CCCN5C(=O)[C@@H](NC(=O)[C@H](C)NC)C(C)C)c4)c4ccccc34)c3ccccc32)c1)C(C)C [Example 2J, (S,S,S)—N,N′-(butane-1,4-diyl)bis(1-(5-((S)-1-((S)-3-methyl-2-((S)-2-(methylamino)propanamido)butanol)pyrrolidin-2-yl)pyridin-3-yl)-1H-indole-3-carboxamide)] | 19.3 to 19.5 nM | 1.13 to 1.15 nM | 0.18 to 1.21 nM

Reference: US8993523B2, “Dimeric IAP inhibitors” (Novartis AG, priority 2010, dated 2015)
